In paper PMC10006169, “A phase I trial of LXS196, a protein kinase C (PKC) inhibitor, for metastatic uveal melanoma” (British Journal of Cancer, 2023):
Read-outs that look alike come from different tables or passages of the source.

Test: Plasma pharmacokinetics (LC-MS/MS)
Type: in vivo, human
Settings: human, plasma, oral; for Tmax: read-out: Tmax, Median (Min, max); for concentration at 15 day: read-out: Cmin, Median (Min, max)
Description: In the dose escalation part of the study, PK samples were collected at various pre- and post-dose time points on C1D1, D2, D3, D15 and D16. Drug concentrations were assessed using a validated liquid chromatography-tandem mass spectrometry assay.

`CC1(N)CCN(c2cccnc2NC(=O)c2nc(-c3ncccc3C(F)(F)F)cnc2N)CC1` [LXS196] showed a Tmax (100 mg, C1D1, 100 mg QD, n=3) of 1 h, an AUC(0-t) (100 mg, C1D15, 100 mg QD, n=2, read-out: AUC0-t, Geo-mean) of 10400 ng·h/mL and an AUC(0-t) (100 mg, C1D15, 100 mg QD, n=2, read-out: AUC0-t, Mean (SD)) of 10400 ng·h/mL. The AUC(0-t) (100 mg, C1D15, 100 mg QD, n=2, read-out: AUC0-t, Median (Min, max)) was 10400 ng·h/mL, the Cmax (100 mg, C1D15, 100 mg QD, n=3, read-out: Cmax, Geo-mean) was 1180 ng/mL and the Cmax (100 mg, C1D15, 100 mg QD, n=3, read-out: Cmax, Mean (SD)) was 1190 ng/mL. For the same compound, the Cmax (100 mg, C1D15, 100 mg QD, n=3, read-out: Cmax, Median (Min, max)) was 1260 ng/mL, the concentration at 15 day (100 mg, C1D15, 100 mg QD, n=3) was 112 ng/mL and the Tmax (100 mg, C1D15, 100 mg QD, n=3) was 1 h. For the same compound, the AUC(0-t) (200 mg, C1D1, 200 mg BID, n=6, read-out: AUC0-t, Geo-mean) was 15400 ng·h/mL, the AUC(0-t) (200 mg, C1D1, 200 mg BID, n=6, read-out: AUC0-t, Mean (SD)) was 18600 ng·h/mL and the AUC(0-t) (200 mg, C1D1, 200 mg BID, n=6, read-out: AUC0-t, Median (Min, max)) was 13300 ng·h/mL. It also gave an AUC(0-inf) (200 mg, C1D1, 200 mg BID, n=6, read-out: AUCinf, Geo-mean) of 24000 ng·h/mL, an AUC(0-inf) (200 mg, C1D1, 200 mg BID, n=6, read-out: AUCinf, Mean (SD)) of 29200 ng·h/mL and an AUC(0-inf) (200 mg, C1D1, 200 mg BID, n=6, read-out: AUCinf, Median (Min, max)) of 21600 ng·h/mL. For the same compound, the Cmax (200 mg, C1D1, 200 mg BID, n=6, read-out: Cmax, Geo-mean) was 3270 ng/mL, the Cmax (200 mg, C1D1, 200 mg BID, n=6, read-out: Cmax, Mean (SD)) was 4070 ng/mL and the Cmax (200 mg, C1D1, 200 mg BID, n=6, read-out: Cmax, Median (Min, max)) was 2950 ng/mL. The half-life (200 mg, C1D1, 200 mg BID, n=6, read-out: T1/2, Geo-mean (converted)) was 13 h, the half-life (200 mg, C1D1, 200 mg BID, n=6, read-out: T1/2, Mean (SD) (converted)) was 13.1 h and the half-life (200 mg, C1D1, 200 mg BID, n=6, read-out: T1/2, Median (Min, max) (converted)) was 13.1 h. The Tmax (200 mg, C1D1, 200 mg BID, n=6) was 0.525 h, the AUC(0-t) (200 mg, C1D1, 200 mg QD, n=3, read-out: AUC0-t, Geo-mean) was 18700 ng·h/mL and the AUC(0-t) (200 mg, C1D1, 200 mg QD, n=3, read-out: AUC0-t, Mean (SD)) was 19100 ng·h/mL. The AUC(0-t) (200 mg, C1D1, 200 mg QD, n=3, read-out: AUC0-t, Median (Min, max)) was 18900 ng·h/mL, the AUC(0-inf) (200 mg, C1D1, 200 mg QD, n=3, read-out: AUCinf, Geo-mean) was 21300 ng·h/mL and the AUC(0-inf) (200 mg, C1D1, 200 mg QD, n=3, read-out: AUCinf, Mean (SD)) was 21600 ng·h/mL. For the same compound, the AUC(0-inf) (200 mg, C1D1, 200 mg QD, n=3, read-out: AUCinf, Median (Min, max)) was 22600 ng·h/mL, the Cmax (200 mg, C1D1, 200 mg QD, n=3, read-out: Cmax, Geo-mean) was 3410 ng/mL and the Cmax (200 mg, C1D1, 200 mg QD, n=3, read-out: Cmax, Mean (SD)) was 3540 ng/mL. It also gave a Cmax (200 mg, C1D1, 200 mg QD, n=3, read-out: Cmax, Median (Min, max)) of 2860 ng/mL, a half-life (200 mg, C1D1, 200 mg QD, n=3, read-out: T1/2, Geo-mean (converted)) of 8.36 h and a half-life (200 mg, C1D1, 200 mg QD, n=3, read-out: T1/2, Mean (SD) (converted)) of 8.52 h. It also gave a half-life (200 mg, C1D1, 200 mg QD, n=3, read-out: T1/2, Median (Min, max) (converted)) of 8.44 h, a Tmax (200 mg, C1D1, 200 mg QD, n=3) of 1 h and an AUC(0-t) (200 mg, C1D15, 200 mg BID, n=5, read-out: AUC0-t, Geo-mean) of 15400 ng·h/mL. It also gave an AUC(0-t) (200 mg, C1D15, 200 mg BID, n=5, read-out: AUC0-t, Mean (SD)) of 16900 ng·h/mL, an AUC(0-t) (200 mg, C1D15, 200 mg BID, n=5, read-out: AUC0-t, Median (Min, max)) of 16000 ng·h/mL and a Cmax (200 mg, C1D15, 200 mg BID, n=5, read-out: Cmax, Geo-mean) of 2470 ng/mL. It also gave a Cmax (200 mg, C1D15, 200 mg BID, n=5, read-out: Cmax, Mean (SD)) of 2910 ng/mL, a Cmax (200 mg, C1D15, 200 mg BID, n=5, read-out: Cmax, Median (Min, max)) of 2540 ng/mL and a concentration at 15 day (200 mg, C1D15, 200 mg BID, n=5) of 883 ng/mL. The Tmax (200 mg, C1D15, 200 mg BID, n=5) was 1 h, the AUC(0-t) (200 mg, C1D15, 200 mg QD, n=3, read-out: AUC0-t, Geo-mean) was 12900 ng·h/mL and the AUC(0-t) (200 mg, C1D15, 200 mg QD, n=3, read-out: AUC0-t, Mean (SD)) was 13200 ng·h/mL. For the same compound, the AUC(0-t) (200 mg, C1D15, 200 mg QD, n=3, read-out: AUC0-t, Median (Min, max)) was 13800 ng·h/mL, the Cmax (200 mg, C1D15, 200 mg QD, n=3, read-out: Cmax, Geo-mean) was 2490 ng/mL and the Cmax (200 mg, C1D15, 200 mg QD, n=3, read-out: Cmax, Mean (SD)) was 2500 ng/mL. For the same compound, the Cmax (200 mg, C1D15, 200 mg QD, n=3, read-out: Cmax, Median (Min, max)) was 2620 ng/mL, the concentration at 15 day (200 mg, C1D15, 200 mg QD, n=3) was 149 ng/mL and the Tmax (200 mg, C1D15, 200 mg QD, n=3) was 1 h. For the same compound, the AUC(0-inf) (300 mg, C1D1, 300 mg BID, n=16, read-out: AUCinf, Geo-mean) was 30900 ng·h/mL, the AUC(0-inf) (300 mg, C1D1, 300 mg BID, n=16, read-out: AUCinf, Mean (SD)) was 35200 ng·h/mL and the AUC(0-inf) (300 mg, C1D1, 300 mg BID, n=16, read-out: AUCinf, Median (Min, max)) was 28400 ng·h/mL. For the same compound, the half-life (300 mg, C1D1, 300 mg BID, n=16, read-out: T1/2, Geo-mean (converted)) was 11.9 h, the half-life (300 mg, C1D1, 300 mg BID, n=16, read-out: T1/2, Mean (SD) (converted)) was 12.1 h and the half-life (300 mg, C1D1, 300 mg BID, n=16, read-out: T1/2, Median (Min, max) (converted)) was 11.8 h.
